From ChEMBL document CHEMBL1201862, “PubChem BioAssay data set” (2004)
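Protocol summary: plate cells (96-well), add compound at 5 concentrations, incubate 48 h, interpolate endpoints linearly. Abbreviation: GI50, concentration required for 50% inhibition of growth.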 Activity calls are given as the source filed them. No stated cut-off is given here; in the data, active = GI50 up to about 1.1 µM and inactive = higher.

Columns and labels:
Experiment in all cases: growth of human tumour cells (NCI), 48 h
SK-MEL-2 = system: SK-MEL-2
786-0 = system: 786-0
EKVX = system: EKVX
SK-OV-3 = system: SK-OV-3
HOP-62 = system: HOP-62
DU-145 = system: DU-145
RPMI-8226 = system: RPMI-8226
MDA-MB-435 = system: MDA-MB-435
T47D = system: T47D
SK-MEL-28 = system: SK-MEL-28
HT-29 = system: HT-29
SK-MEL-5 = system: SK-MEL-5
NCI/ADR-RES = system: NCI/ADR-RES
NCI-H23 = system: NCI-H23
A549 = system: A549
U-251 = system: U-251
UACC-62 = system: UACC-62
BT-549 = system: BT-549
A498 = system: A498
MDA-MB-231 = system: MDA-MB-231
UO-31 = system: UO-31
TK-10 = system: TK-10
HCT-15 = system: HCT-15
HCC 2998 = system: HCC 2998
SN12C = system: SN12C
Malme-3M = system: Malme-3M
PC-3 = system: PC-3
NCI-H226 = system: NCI-H226
CCRF-CEM = system: CCRF-CEM
OVCAR-5 = system: OVCAR-5
RXF 393 = system: RXF 393
M14 = system: M14
K562 = system: K562
OVCAR-4 = system: OVCAR-4
COLO 205 = system: COLO 205
SR = system: SR
IGROV-1 = system: IGROV-1
KM12 = system: KM12
ACHN = system: ACHN
Hs-578T = system: Hs-578T
LOX IMVI = system: LOX IMVI
HL-60 = system: HL-60
MCF7 = system: MCF7
OVCAR-8 = system: OVCAR-8
SF-539 = system: SF-539
SNB-75 = system: SNB-75
SNB-19 = system: SNB-19
NCI-H460 = system: NCI-H460
OVCAR-3 = system: OVCAR-3
SF-268 = system: SF-268
MDA-N = system: MDA-N
SF-295 = system: SF-295
MOLT-4 = system: MOLT-4
NCI-H522 = system: NCI-H522
SW-620 = system: SW-620
HCT-116 = system: HCT-116
UACC-257 = system: UACC-257
CAKI-1 = system: CAKI-1

**Q.** With `Cn1ccnc1CCc1ccc(F)cc1F` as the compound, how does the GI50 (SK-MEL-2) read?
**A.** > 100 µM (inactive)

**Q.** What about the GI50 (786-0) of the same compound?
**A.** > 100 µM (inactive)

**Q.** And the GI50 (EKVX)?
**A.** > 100 µM (inactive)

**Q.** And the GI50 (SK-OV-3)?
**A.** > 100 µM (inactive)

**Q.** What about the GI50 (HOP-62) of the same compound?
**A.** > 100 µM (inactive)

**Q.** What about the GI50 (DU-145) of the same compound?
**A.** > 100 µM (inactive)

**Q.** What about the GI50 (RPMI-8226) of the same compound?
**A.** > 100 µM (inactive)

**Q.** What about the GI50 (MDA-MB-435) of the same compound?
**A.** > 100 µM (inactive)

**Q.** What about the GI50 (T47D) of the same compound?
**A.** > 100 µM (inactive)

**Q.** And the GI50 (SK-MEL-28)?
**A.** > 100 µM (inactive)

**Q.** And the GI50 (HT-29)?
**A.** > 100 µM (inactive)

**Q.** And the GI50 (SK-MEL-5)?
**A.** > 100 µM (inactive)

**Q.** What about the GI50 (NCI/ADR-RES) of the same compound?
**A.** > 100 µM (inactive)

**Q.** And the GI50 (NCI-H23)?
**A.** > 100 µM (inactive)

**Q.** And the GI50 (A549)?
**A.** > 100 µM (inactive)

**Q.** What about the GI50 (U-251) of the same compound?
**A.** > 100 µM (inactive)

**Q.** What about the GI50 (UACC-62) of the same compound?
**A.** > 100 µM (inactive)

**Q.** What about the GI50 (BT-549) of the same compound?
**A.** > 100 µM (inactive)

**Q.** And the GI50 (A498)?
**A.** > 100 µM (inactive)

**Q.** What about the GI50 (MDA-MB-231) of the same compound?
**A.** > 100 µM (inactive)

**Q.** What about the GI50 (UO-31) of the same compound?
**A.** > 100 µM (inactive)

**Q.** What about the GI50 (TK-10) of the same compound?
**A.** > 100 µM (inactive)

**Q.** What about the GI50 (HCT-15) of the same compound?
**A.** > 100 µM

**Q.** And the GI50 (HCC 2998)?
**A.** > 100 µM (inactive)

**Q.** What about the GI50 (SN12C) of the same compound?
**A.** > 100 µM (inactive)

**Q.** What about the GI50 (Malme-3M) of the same compound?
**A.** > 100 µM (inactive)

**Q.** And the GI50 (PC-3)?
**A.** > 100 µM (inactive)

**Q.** What about the GI50 (NCI-H226) of the same compound?
**A.** > 100 µM (inactive)

**Q.** And the GI50 (CCRF-CEM)?
**A.** > 100 µM (inactive)

**Q.** What about the GI50 (OVCAR-5) of the same compound?
**A.** > 100 µM (inactive)

**Q.** And the GI50 (RXF 393)?
**A.** > 100 µM (inactive)

**Q.** And the GI50 (M14)?
**A.** > 100 µM (inactive)

**Q.** What about the GI50 (K562) of the same compound?
**A.** > 100 µM (inactive)

**Q.** And the GI50 (OVCAR-4)?
**A.** > 100 µM (inactive)

**Q.** What about the GI50 (COLO 205) of the same compound?
**A.** > 100 µM (inactive)

**Q.** And the GI50 (SR)?
**A.** > 100 µM (inactive)

**Q.** And the GI50 (IGROV-1)?
**A.** > 100 µM (inactive)

**Q.** What about the GI50 (KM12) of the same compound?
**A.** > 100 µM (inactive)

**Q.** And the GI50 (ACHN)?
**A.** > 100 µM (inactive)

**Q.** What about the GI50 (Hs-578T) of the same compound?
**A.** > 100 µM (inactive)

**Q.** What about the GI50 (LOX IMVI) of the same compound?
**A.** > 100 µM (inactive)

**Q.** What about the GI50 (HL-60) of the same compound?
**A.** > 100 µM (inactive)

**Q.** And the GI50 (MCF7)?
**A.** > 100 µM (inactive)

**Q.** What about the GI50 (OVCAR-8) of the same compound?
**A.** > 100 µM (inactive)

**Q.** What about the GI50 (SF-539) of the same compound?
**A.** > 100 µM (inactive)

**Q.** What about the GI50 (SNB-75) of the same compound?
**A.** > 100 µM (inactive)

**Q.** What about the GI50 (SNB-19) of the same compound?
**A.** > 100 µM (inactive)

**Q.** What about the GI50 (NCI-H460) of the same compound?
**A.** > 100 µM (inactive)

**Q.** And the GI50 (OVCAR-3)?
**A.** > 100 µM (inactive)

**Q.** And the GI50 (SF-268)?
**A.** > 100 µM (inactive)

**Q.** And the GI50 (MDA-N)?
**A.** > 100 µM (inactive)

**Q.** And the GI50 (SF-295)?
**A.** > 100 µM (inactive)

**Q.** And the GI50 (MOLT-4)?
**A.** > 100 µM (inactive)

**Q.** What about the GI50 (NCI-H522) of the same compound?
**A.** > 100 µM (inactive)

**Q.** What about the GI50 (SW-620) of the same compound?
**A.** > 100 µM (inactive)

**Q.** What does the source list for `Cc1cc(N(CCC#N)CCC#N)ccc1C(/N=N/c1ccc(Cl)cc1)=N\NC(=O)c1cc(Cl)ccc1O`?
**A.** GI50 (SK-MEL-2): 67 µM (inactive); GI50 (786-0): 30.6 µM (inactive); GI50 (EKVX): 36.4 µM (inactive); GI50 (SK-OV-3): 34.8 µM (inactive); GI50 (HOP-62): 20.5 µM (inactive); GI50 (DU-145): > 100 µM (inactive); GI50 (RPMI-8226): > 100 µM (inactive); GI50 (MDA-MB-435): > 100 µM (inactive); GI50 (T47D): 31.6 µM (inactive); GI50 (HT-29): 45.9 µM (inactive); GI50 (SK-MEL-5): > 100 µM (inactive); GI50 (NCI/ADR-RES): 52.8 µM (inactive); GI50 (NCI-H23): 40.2 µM (inactive); GI50 (A549): 31.3 µM (inactive); GI50 (U-251): 37.1 µM (inactive); GI50 (UACC-62): 43.3 µM (inactive); GI50 (BT-549): 36.7 µM (inactive); GI50 (A498): 29.1 µM (inactive); GI50 (MDA-MB-231): 30.8 µM (inactive); GI50 (UO-31): 64.4 µM (inactive); GI50 (HCT-116): 71.4 µM (inactive); GI50 (TK-10): 30 µM (inactive); GI50 (HCT-15): 39.4 µM; GI50 (HCC 2998): 29.9 µM (inactive); GI50 (SN12C): 70.5 µM (inactive); GI50 (Malme-3M): 62.7 µM (inactive); GI50 (PC-3): 35.2 µM (inactive); GI50 (UACC-257): 72.8 µM (inactive); GI50 (NCI-H226): 28.7 µM (inactive); GI50 (CCRF-CEM): 37 µM (inactive); GI50 (OVCAR-5): > 100 µM (inactive); GI50 (RXF 393): 22.2 µM (inactive); GI50 (M14): > 100 µM (inactive); GI50 (K562): 76.2 µM (inactive); GI50 (OVCAR-4): 27.1 µM (inactive); GI50 (COLO 205): 47.9 µM (inactive); GI50 (SR): 38.7 µM (inactive); GI50 (IGROV-1): 30.6 µM (inactive); GI50 (KM12): 58.9 µM (inactive); GI50 (ACHN): 32.4 µM (inactive); GI50 (Hs-578T): 19.5 µM (inactive); GI50 (CAKI-1): > 100 µM (inactive); GI50 (MCF7): 29.4 µM (inactive); GI50 (OVCAR-8): 35.6 µM (inactive); GI50 (SF-539): 25 µM (inactive); GI50 (SNB-75): 30.1 µM (inactive); GI50 (SNB-19): 25.1 µM (inactive); GI50 (NCI-H460): 27.9 µM (inactive); GI50 (OVCAR-3): 19.1 µM (inactive); GI50 (SF-268): 27.7 µM (inactive); GI50 (MDA-N): > 100 µM (inactive); GI50 (SF-295): 22.8 µM (inactive); GI50 (MOLT-4): 53.5 µM (inactive); GI50 (NCI-H522): 16.7 µM (inactive)
